Experimental findings from patent publication US20090029949A1, “GPCR Ligands Identified by Computational Modeling” (priority 2006, published 2009) are described below.

The assay has as its target T1, S1P1 mutant F5.43G (Homo sapiens, UniProt P21453, F205G).
T1 construct: expressed in transfected cells; host or cells: RH7777 (transient, pcDNA3.1)
The assay is described as follows: [35S]GTPγS binding, S1P1 F5.43G. It is filed as biochemical. As to conditions: S1P-induced, S1P1 F5.43G in RH7777 cells. Here is the method:
RH7777 and HEK-293 cells (ATCC, Manassas, Va.) were maintained in Dulbecco's modified minimal essential medium (DMEM) containing 10% fetal bovine serum (Hyclone, Logan, Utah). Cells (2×10^6) were transfected with 2 μg of plasmid DNA with Effectene (Qiagen, Valencia, Calif.) according to the manufacturer's instructions, for 24 h. Before ligand binding and receptor activation assays, the cells were washed twice with serum-free DMEM and serum-starved for at least 6 h.
S1P1 Receptor Activation Assays Receptor functional assays were performed in transiently transfected RH7777 cells by measuring S1P-activated [^35S]GTPγS binding as previously described (28).
For orientation: GTPγS is a poorly hydrolysed GTP analogue; its binding reports G protein activation.

T1 sequence (P21453 whole entry F205G): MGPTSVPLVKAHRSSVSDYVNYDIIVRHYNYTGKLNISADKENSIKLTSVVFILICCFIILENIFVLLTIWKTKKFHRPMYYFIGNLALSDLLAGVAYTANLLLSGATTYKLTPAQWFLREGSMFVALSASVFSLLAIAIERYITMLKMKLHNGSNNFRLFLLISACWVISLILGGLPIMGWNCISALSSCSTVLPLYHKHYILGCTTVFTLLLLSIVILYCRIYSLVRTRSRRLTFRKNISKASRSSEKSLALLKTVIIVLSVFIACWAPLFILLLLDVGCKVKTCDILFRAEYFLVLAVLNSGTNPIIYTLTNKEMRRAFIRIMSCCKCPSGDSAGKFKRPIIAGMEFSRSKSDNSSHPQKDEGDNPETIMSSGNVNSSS

For the molecule `CCCCCCCCCCCCC/C=C/[C@@H](O)[C@@H](N)COP(=O)(O)O` [S1P, Sphingosine 1-phosphate], the EC50 (in general, the concentration giving half of the maximal effect) worked out at 11.8 nM. The Emax – broadly, the size of the effect at its maximum, as opposed to the concentration needed – (read-out: % WT Emax + s.d.) amounted to 70%.
